Our source for the IC50 values is US20250049809A1, “INHIBITORS OF MUTANT IDH1 AND IDH2” (Board of Regents, The University of Texas System, priority 2023, published 2025).

In one assay the target is WT IDH2 (Homo sapiens (Human), UniProt P48735). Nature of the assay: WT IDH2 enzymatic activity assay (NADPH fluorescence). Type of assay: biochemical. To be noted: enzyme assay. Here is the method: The enzymatic activity of WT IDH2 was assessed by measuring the fluorescence of the NADPH generated in the enzymatic reaction. The assay was performed in 384 well, white ProxiPlates (PerkinElmer, 6008280) in assay buffer containing 50 mM Hepes (Life Technologies, 15630080), 50 mM KCl (Teknova, P0327), 10 mM MgCl2 (Sigma-Aldrich, M1028), 1 mM DTT (Sigma-Aldrich, 43815), 0.02% BSA (Sigma-Aldrich, A3059) at pH 7.5. The final reaction volume was 10 μL. Stock solutions of the test compounds were prepared in 100% DMSO (Sigma, D2650) and serially diluted 1:3 using 100% DMSO. 50 nL of compound were then transferred to the assay plate using the Beckman Coulter ECHO 650 Acoustic Liquid Handler for a final DMSO concentration of 0.5%. 5 μL of WT IDH2 were added to the assay plate for a final concentration of 0.5 nM. 5 μL of assay buffer alone were added to negative control wells. 5 μL of an isocitrate (Sigma-Aldrich, 58790) and NADP (Sigma-Aldrich, N5755) mixture were added to the assay plate for a final concentration of 5 μM and 15 μM, respectively. Fluorescence of NADPH (excitation: 350 nm, emission 450 nm) was immediately measured kinetically for approximately 15 minutes using the BioTek Synergy Neo plate reader.
WT IDH2, sequence (P48735 40-452): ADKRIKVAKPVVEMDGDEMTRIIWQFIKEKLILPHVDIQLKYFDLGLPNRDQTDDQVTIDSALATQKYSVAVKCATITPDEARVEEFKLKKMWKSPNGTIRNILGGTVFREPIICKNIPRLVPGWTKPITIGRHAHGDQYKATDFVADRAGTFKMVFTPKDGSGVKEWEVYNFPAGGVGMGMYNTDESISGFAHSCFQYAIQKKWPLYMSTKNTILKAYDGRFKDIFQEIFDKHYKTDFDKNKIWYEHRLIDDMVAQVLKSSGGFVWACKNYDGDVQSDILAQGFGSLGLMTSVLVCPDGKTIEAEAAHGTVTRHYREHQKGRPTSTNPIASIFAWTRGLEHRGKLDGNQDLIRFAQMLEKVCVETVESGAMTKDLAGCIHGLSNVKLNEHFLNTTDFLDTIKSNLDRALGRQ

The target in the next assay is mIDH1R132H/S280F (Homo sapiens (Human), UniProt O75874, R132H/S280F). Nature of the assay: mIDH1 R132H/S280F enzymatic activity assay (NADPH fluorescence). It counts as biochemical. Particulars: enzyme assay, 1 hour preincubation; read-out: IDH1R132H/S280F IC50. The procedure:
The enzymatic activity of mIDH1R132H/S280F was assessed by measuring the fluorescence of the NADPH. The assay was performed in 384 well, white ProxiPlates (PerkinElmer, 6008280) in assay buffer containing 50 mM Hepes (Life Technologies, 15630080), 50 mM KCl (Teknova, P0327), 10 mM MgCl2 (Sigma-Aldrich, M1028), 1 mM DTT (Sigma-Aldrich, 43815), 0.02% BSA (Sigma-Aldrich, A3059) at pH 7.5. The final reaction volume was 10 μL. Stock solutions of the test compounds were prepared in 100% DMSO (Sigma, D2650) and serially diluted 1:3 using 100% DMSO. 50 nL of compound were then transferred to the assay plate using the Beckman Coulter ECHO 650 Acoustic Liquid Handler for a final DMSO concentration of 0.5%. 5 μL of a mIDH1R132H/S280F and NADPH (Santa Cruz, SC202725C) mixture were added to the assay plate for a final concentration of 2 nM and […], respectively. 5 μL of NADPH alone were added to negative control wells followed by a 1 hour preincubation at room temperature. 5 μL of alphaketoglutarate (Sigma-Aldrich, K1128) were added to the assay plate for a final concentration of 120 μM. Fluorescence of NADPH (excitation: 350 nm, emission 450 nm) was immediately measured kinetically for approximately 90 minutes using the BioTek Synergy Neo plate reader.

In the next assay the target is U87 IDH1R132H (Homo sapiens (Human), UniProt O75874, R132H). As to the kind of experiment: U87 IDH1 R132H 2-HG cellular assay. It counts as cell-based. Particulars: extracellular 2HG, 24 h treatment, IDH1 mutant-U-87 isogenic cell line. The procedure:
The IDH1 mutant-U-87 isogenic cell line (ATCC HTB-14IG) used to test cellular inhibition is a glioma IDH1R132H mutant isogenic line derived from the parental U-87MG cell line. These cells are maintained in EMEM (ATCC 30-2003) culture media with 10% FBS and 10 U/mL Penicillin-Streptomycin. Twelve thousand cells are plated in polystyrene 384 well cell culture plates (Greiner Bio-One 781091) (12,000 cells/well) approximately 18 hours before compound treatment. Immediately before treatment, the cells are washed twice with PBS, followed by culture media replenishing. Cells are then treated with different concentrations of test compounds (5 μM to 0.3 pM) for 24 h. Extracellular 2HG levels are measured from cell culture media. For analyte extraction, 30 μL of culture media is transferred to 120 uL 100% acetonitrile in a deep 384 well plate and mixed well, followed by 5 min centrifugation at 3700 rpm at room temperature. 100 μL of supernatant is transferred to a flat bottom 384 well plate. Samples are run on the Agilent RapidFire-Mass Spectrometry instrument to detect 2HG levels. The samples from each well were aspirated for 600 ms and loaded onto a HILIC solid-phase extraction cartridge (Agilent) followed by a wash step for 3000 ms with 90% acetonitrile containing 5 mM ammonium acetate. Analytes were then eluted off the cartridge into the Agilent 6460 Triple Quad mass spectrometer with a 4500 ms elution step using 30% acetonitrile containing 5 mM ammonium acetate. The HILIC cartridge was then re-equilibrated by 90% acetonitrile containing 5 mM ammonium acetate for 500 ms. The 2HG was detected by an Agilent 6460 Triple Quad mass spectrometer in negative ion mode. Multiple reaction monitoring was used to quantify 2HG using the precursor ion and product ion at m/z 147.03 and 128.9, respectively. The percent activity of each sample is calculated by using DMSO and control compound treated references, and IC50 values are obtained using the GeneData Screener data analysis program.

U87 IDH1R132H, sequence (O75874 whole entry R132H): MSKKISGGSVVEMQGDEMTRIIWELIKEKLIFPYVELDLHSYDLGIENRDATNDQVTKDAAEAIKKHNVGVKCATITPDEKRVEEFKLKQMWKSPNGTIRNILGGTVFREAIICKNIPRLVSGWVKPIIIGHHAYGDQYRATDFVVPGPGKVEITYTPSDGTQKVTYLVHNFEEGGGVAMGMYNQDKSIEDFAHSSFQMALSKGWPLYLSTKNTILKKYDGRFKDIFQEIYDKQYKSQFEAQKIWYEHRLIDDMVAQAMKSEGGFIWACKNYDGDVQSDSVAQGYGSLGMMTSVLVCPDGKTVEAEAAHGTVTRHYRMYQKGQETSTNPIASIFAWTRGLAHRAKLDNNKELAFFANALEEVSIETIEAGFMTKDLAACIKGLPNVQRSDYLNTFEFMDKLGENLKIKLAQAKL
mIDH1R132H/S280F, sequence (O75874 whole entry R132H/S280F): as the sequence (O75874 whole entry R132H) above, with S280F counted along it

Consider `C=CC(=O)N1CCN(C2CCCC/C=C/CN3C(=O)OCc4cnc(nc43)N[C@@H](C)c3ccc2cc3)CC1` (stereo partly drawn) [Example 3, (3S,E)-5-(4-acryloylpiperazin-1-yl)-3-methyl-1^1,1^4-dihydro-1^2H-2-aza-1(7,1)-pyrimido[4,5-d][1,3]oxazina-4(1,4)-benzenacyclododecaphan-10-en-1^2-one], for which the IC50 came to 16.2 µM at WT IDH2, 260 nM on mIDH1R132H/S280F and 0.14 nM against U87 IDH1R132H.

Regarding `C=CC(=O)N1CCN(C2CCCCCCCN3C(=O)OCc4cnc(nc43)N[C@@H](C)c3ccc2cc3)CC1` (stereo partly drawn) [Example 4, (3S)-5-(4-acryloylpiperazin-1-yl)-3-methyl-1^1,1^4-dihydro-1^2H-2-aza-1(7,1)-pyrimido[4,5-d][1,3]oxazina-4(1,4)-benzenacyclododecaphan-1^2-one], the IC50 on WT IDH2 stood at 41.2 µM; on mIDH1R132H/S280F, 295 nM; against U87 IDH1R132H, 0.2 nM.
